Experimental findings from the NIST ThermoML archive (doi:10.1021/je0342522) are described below.

The conditions of data set [1]: Liquid.
Data set [2] in a line: excess molar enthalpy (molar enthalpy of mixing); xn = mol fraction of the nth substance listed. To be noted: 323.15 K, 4100 kPa, Liquid, Flow calorimetry.

Numbers after ± are expanded uncertainties.

As a reminder, the vapor or sublimation pressure is the pressure of vapour in equilibrium with the condensed phase. Regarding `OCCO` [1,2-ethanediol], the figures for the “vapor or sublimation pressure” value in data set [1] (333.15 K) and in data set [1] (353.15 K) were 0.22 ± 0.04 kPa and 0.77 ± 0.05 kPa, respectively.

For the molecule `CC(=O)c1ccccc1` [acetophenone], the “vapor or sublimation pressure” value in data set [1] (323.27 K) is 0.34 ± 0.042 kPa.

On to `C=CC` [propene], for which the “vapor or sublimation pressure” value in data set [1] (323.27 K) came out at 2058.9 ± 14 kPa.

For `C=CC` [propene] + CC(=O)c1ccccc1, the excess molar enthalpy was 0.054 ± 0.002 kJ/mol in data set [2] (x1 = 0.0702); 0.105 ± 0.003 kJ/mol in data set [2] (x1 = 0.1375); 0.148 ± 0.003 kJ/mol in data set [2] (x1 = 0.202); 0.188 ± 0.004 kJ/mol in data set [2] (x1 = 0.264); 0.213 ± 0.005 kJ/mol in data set [2] (x1 = 0.3235); 0.24 ± 0.005 kJ/mol in data set [2] (x1 = 0.4086). The excess molar enthalpy came out at 0.25 ± 0.006 kJ/mol in data set [2] (x1 = 0.4889); 0.246 ± 0.006 kJ/mol in data set [2] (x1 = 0.5893); 0.218 ± 0.005 kJ/mol in data set [2] (x1 = 0.6828); 0.184 ± 0.004 kJ/mol in data set [2] (x1 = 0.7487); 0.142 ± 0.003 kJ/mol in data set [2] (x1 = 0.8115); 0.113 ± 0.003 kJ/mol in data set [2] (x1 = 0.8516). Besides, the excess molar enthalpy in data set [2] (x1 = 0.8905) is 0.082 ± 0.002 kJ/mol; in data set [2] (x1 = 0.9281), 0.052 ± 0.002 kJ/mol; in data set [2] (x1 = 0.9646), 0.025 ± 0.001 kJ/mol.

With `O` [water], the “vapor or sublimation pressure” value in data set [1] (333.15 K) is given as 19.93 ± 0.17 kPa; in data set [1] (353.15 K), 47.44 ± 0.35 kPa.
